The values that follow come from patent US11225470B2, “Tetrazolinone compounds and its use as pest control agents” (SUMITOMO CHEMICAL COMPANY, LIMITED, priority 2016, dated 2022).

SMILES strings stand for the structures.

The test system of this assay is tomato early blight fungi (Alternaria solani; QoI resistant strain, cytochrome b phenylalanine 129 mutated to leucine). The class given is in vivo. To be noted: 200 ppm foliar spray, inoculation after 1 day; tomato cv PATIO.

For the compound `CCC(=NN=C(C)c1ccc2ccccc2c1)OCc1c(C)cccc1-n1nnn(C)c1=O` [cf1], the “lesion area compared to the lesion area in an untreated tomato” value was at least 70%.
